The record followed here is US9113629B2, “4-amino-6-(4-substituted-phenyl)-picolinates and 6-amino-2-(4-substituted-phenyl)-pyrimidine-4-carboxylates and their use as herbicides” (DOW AGROSCIENCES LLC, priority 2013, dated 2015).

SMILES strings stand for the structures. Read-outs that look alike come from different tables or passages of the source.

Data set [1] relates to Key Broadleaf Weed and Crop Species. Nature of the data set: Post-emergent Test II herbicidal activity (Table 5). It counts as in vivo. The settings on record: post-emergence, 336 h, 14 days after application; for pest or weed control at 70 g/ha: application rate 70 g ai/ha. The gist of the method:
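Spray rates: a highest rate plus ½×, ¼×, ⅛×, 1/16×, all delivered at 187 L/ha to plants at the first–second true leaf stage. Readout is a visual percent injury score at 14 d, where 100 means complete kill.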

Data set [2] concerns Key Grass and Sedge Weeds as well as Grass Crops. As to the kind of experiment: Post-emergent Test II herbicidal activity (Table 6). The settings on record: post-emergence, 336 h; for pest or weed control at 70 g/ha: application rate 70 g ai/ha; for pest or weed control at 140 g/ha: application rate 140 g ai/ha. The format is in vivo. As to the method:
Post-emergent Test II: Seeds or nutlets of the desired test plant species were planted in Sun Gro Metro-Mix® 360 planting mixture, which typically has a pH of 6.0 to 6.8 and an organic matter content of about 30 percent, in plastic pots with a surface area of 64 square centimeters. When required to ensure good germination and healthy plants, a fungicide treatment and/or other chemical or physical treatment was applied. The plants were grown for 7-21 d in a greenhouse with an approximate 15 h photoperiod which was maintained at about 23-29° C. during the day and 22-28° C. during the night. Nutrients and water were added on a regular basis and supplemental lighting was provided with overhead metal halide 1000-Watt lamps as necessary. The plants were employed for testing when they reached the first or second true leaf stage.
A weighed amount, determined by the highest rate to be tested, of each test compound was placed in a 25 mL glass vial and was dissolved in 4 mL of a 97:3 v/v mixture of acetone and DMSO to obtain concentrated stock solutions. […] The concentrated stock solutions obtained were diluted with 20 mL of an aqueous mixture containing acetone, water, isopropyl alcohol, DMSO. Atplus 411F crop oil concentrate, and Triton® X-155 surfactant in a 48.5:39:10:1.5:1.0:0.02 v/v ratio to obtain spray solutions containing the highest application rates. Additional application rates were obtained by serial dilution of 12 mL of the high rate solution into a solution containing 2 mL of 97:3 v/v mixture of acetone and DMSO and 10 mL of an aqueous mixture containing acetone, water, isopropyl alcohol, DMSO, Atplus 411F crop oil concentrate, and Triton X-155 surfactant in a 48.5:39:10:1.5:1.0:0.02 v/v ratio to obtain ½×, ¼×, ⅛× and 1/16× rates of the high rate. Compound requirements are based upon a 12 mL application volume at a rate of 187 liters per hectare (L/ha). Formulated compounds were applied to the plant material with an overhead Mandel track sprayer equipped with 8002E nozzles calibrated to deliver 187 L/ha over an application area of 0.503 square meters at a spray height of 18 inches (43 cm) above the average plant canopy height. Control plants were sprayed in the same manner with the solvent blank.
The treated plants and control plants were placed in a greenhouse as described above and watered by subirrigation to prevent wash-off of the test compounds. After 14 d, the condition of the test plants as compared with that of the untreated plants was determined visually and scored on a scale of 0 to 100 percent where 0 corresponds to no injury and 100 corresponds to complete kill.

The mark [3] stands for this setting: Triticum aestivum, TRZSS (wheat), read-out: Visual Growth Reduction (%) 14 Days After Application, TRZSS.
[4] abbreviates: CYPES: yellow nutsedge (Cyperus esculentus), read-out: Visual Growth Reduction (%) 14 Days After Application, CYPES.
Where [5] appears, read: DIGSA: crabgrass (Digitaria sanguinalis), read-out: Visual Growth Reduction (%) 14 Days After Application, DIGSA.
The mark [6] stands for this setting: ORYSA: rice (Oryza sativa), read-out: Visual Growth Reduction (%) 14 Days After Application, ORYSA.
[7] abbreviates: SORVU: grain sorghum (Sorghum vulgare), read-out: Visual Growth Reduction (%) 14 Days After Application, SORVU.
The mark [8] stands for this setting: ZEAMX: maize, corn (Zea mays), read-out: Visual Growth Reduction (%) 14 Days After Application, ZEAMX.
[9] abbreviates: ABUTH: velvetleaf (Abutilon theophrasti), 140 g ai/ha, post-emergent, read-out: Visual Growth Reduction (%) 14 Days After Application ABUTH.
Setting [10] is: AMARE: redroot pigweed (Amaranthus retroflexus), 140 g ai/ha, post-emergent, read-out: Visual Growth Reduction (%) 14 Days After Application AMARE.
The mark [11] stands for this setting: BRSNN: oilseed-rape, canola (Brassica napus), 140 g ai/ha, post-emergent, read-out: Visual Growth Reduction (%) 14 Days After Application BRSNN.
Setting [12] is: CHEAL: lambsquarters (Chenopodium album), 140 g ai/ha, post-emergent, read-out: Visual Growth Reduction (%) 14 Days After Application CHEAL.
The mark [13] stands for this setting: EPHHL: wild poinsettia (Euphorbia heterophylla), 140 g ai/ha, post-emergent, read-out: Visual Growth Reduction (%) 14 Days After Application EPHHL.
The mark [14] stands for this setting: HELAN: sunflower (Helianthus annuus), 140 g ai/ha, post-emergent, read-out: Visual Growth Reduction (%) 14 Days After Application HELAN.
The mark [15] stands for this setting: VIOTR: wild pansy (Viola tricolor), 140 g ai/ha, post-emergent, read-out: Visual Growth Reduction (%) 14 Days After Application VIOTR.
[16] abbreviates: ECHCG: barnyardgrass (Echinochloa crus-galli), read-out: Visual Growth Reduction (%) 14 Days After Application, ECHCG.
[17] abbreviates: SETFA: giant foxtail (Setaria faberi), read-out: Visual Growth Reduction (%) 14 Days After Application, SETFA.

A word on the melting point: it is the temperature of the solid-liquid transition.

Regarding `Nc1c(F)c(-c2ccc(OC(F)F)c(F)c2)nc(C(=O)O)c1Cl` [Compound 92, 4-amino-3-chloro-6-(4-(difluoromethoxy)-3-fluorophenyl)-5-fluoropicolinic acid], the melting point was 147 to 149 °C. In addition, the pest or weed control at 70 g/ha in data set [1] (ABUTH: velvetleaf (Abutilon theophrasti), read-out: Visual Growth Reduction (%) 14 Days After Application, ABUTH) is 0 to 29%. In addition, the pest or weed control at 140 g/ha in data set [1] (ABUTH: velvetleaf (Abutilon theophrasti), application rate 140 g ai/ha, read-out: Visual Growth Reduction (%) 14 Days After Application, ABUTH) lay within 0 to 29%. Further, the pest or weed control at 70 g/ha in data set [1] (AMARE: redroot pigweed (Amaranthus retroflexus), read-out: Visual Growth Reduction (%) 14 Days After Application, AMARE) was 45 to 59%. In data set [1] (AMARE: redroot pigweed (Amaranthus retroflexus), application rate 140 g ai/ha, read-out: Visual Growth Reduction (%) 14 Days After Application, AMARE), the pest or weed control at 140 g/ha is 60 to 74%. The pest or weed control at 70 g/ha in data set [1] (BRSNN: oilseed-rape, canola (Brassica napus), read-out: Visual Growth Reduction (%) 14 Days After Application, BRSNN) was 30 to 44%. Also, the pest or weed control at 140 g/ha in data set [1] (BRSNN: oilseed-rape, canola (Brassica napus), application rate 140 g ai/ha, read-out: Visual Growth Reduction (%) 14 Days After Application, BRSNN) lay within 45 to 59%. Besides, the pest or weed control at 70 g/ha in data set [1] (CHEAL: lambsquarters (Chenopodium album), read-out: Visual Growth Reduction (%) 14 Days After Application, CHEAL) is 85 to 94%. Also, the pest or weed control at 140 g/ha in data set [1] (CHEAL: lambsquarters (Chenopodium album), application rate 140 g ai/ha, read-out: Visual Growth Reduction (%) 14 Days After Application, CHEAL) was 85 to 94%. The pest or weed control at 70 g/ha in data set [1] (EPHHL: wild poinsettia (Euphorbia heterophylla), read-out: Visual Growth Reduction (%) 14 Days After Application, EPHHL) fell in the range of 95 to 100%. Moreover, the pest or weed control at 140 g/ha in data set [1] (EPHHL: wild poinsettia (Euphorbia heterophylla), application rate 140 g ai/ha, read-out: Visual Growth Reduction (%) 14 Days After Application, EPHHL) lay within 95 to 100%. Further, the pest or weed control at 70 g/ha in data set [1] (HELAN: sunflower (Helianthus annuus), read-out: Visual Growth Reduction (%) 14 Days After Application, HELAN) was in the range of 60 to 74%. Moreover, the pest or weed control at 140 g/ha in data set [1] (HELAN: sunflower (Helianthus annuus), application rate 140 g ai/ha, read-out: Visual Growth Reduction (%) 14 Days After Application, HELAN) fell in the range of 75 to 84%. In addition, the pest or weed control at 70 g/ha in data set [1] (VIOTR: wild pansy (Viola tricolor), read-out: Visual Growth Reduction (%) 14 Days After Application, VIOTR) lay within 0 to 29%. Further, in data set [1] (VIOTR: wild pansy (Viola tricolor), application rate 140 g ai/ha, read-out: Visual Growth Reduction (%) 14 Days After Application, VIOTR), the pest or weed control at 140 g/ha was 0 to 29%. For the same compound, in data set [2] (setting [3]), the pest or weed control at 70 g/ha was in the range of 30 to 44% and the pest or weed control at 140 g/ha was in the range of 45 to 59%. Further, in data set [2] (setting [4]), the pest or weed control at 70 g/ha lay within 0 to 29% and the pest or weed control at 140 g/ha lay in the range of 0 to 29%. Besides, in data set [2] (setting [5]), the pest or weed control at 70 g/ha is 60 to 74% and the pest or weed control at 140 g/ha was 60 to 74%. For the same compound, in data set [2] (setting [6]), the pest or weed control at 70 g/ha lay within 0 to 29% and the pest or weed control at 140 g/ha lay within 0 to 29%. In data set [2] (setting [7]), the pest or weed control at 70 g/ha was in the range of 30 to 44% and the pest or weed control at 140 g/ha lay within 45 to 59%. Further, in data set [2] (setting [8]), the pest or weed control at 70 g/ha lay in the range of 60 to 74% and the pest or weed control at 140 g/ha was in the range of 60 to 74%.
Compound `COc1c(N)nc(-c2ccc(OC(F)(F)F)cc2)nc1C(=O)O` [Compound 102] gave a melting point of 171 to 172.1 °C. Besides, the pest or weed control at 140 g/ha in data set [1] (setting [9]) was 0 to 29%. The pest or weed control at 140 g/ha in data set [1] (setting [10]) lay in the range of 0 to 29%. Besides, the pest or weed control at 140 g/ha in data set [1] (setting [11]) is 0 to 29%. Also, the pest or weed control at 140 g/ha in data set [1] (setting [12]) lay within 0 to 29%. In addition, in data set [1] (setting [13]), the pest or weed control at 140 g/ha is 95 to 100%. In data set [1] (setting [14]), the pest or weed control at 140 g/ha was in the range of 60 to 74%. In addition, the pest or weed control at 140 g/ha in data set [1] (setting [15]) was 0 to 29%. Also, the pest or weed control at 140 g/ha in data set [2] (setting [3]) fell in the range of 0 to 29%. Also, the pest or weed control at 140 g/ha in data set [2] (setting [4]) is 0 to 29%. Besides, the pest or weed control at 140 g/ha in data set [2] (setting [5]) was in the range of 0 to 29%. The pest or weed control at 140 g/ha in data set [2] (setting [16]) lay within 0 to 29%. The pest or weed control at 140 g/ha in data set [2] (setting [6]) was in the range of 0 to 29%. Also, the pest or weed control at 140 g/ha in data set [2] (setting [17]) was in the range of 0 to 29%. Moreover, the pest or weed control at 140 g/ha in data set [2] (setting [7]) was in the range of 0 to 29%. The pest or weed control at 140 g/ha in data set [2] (setting [8]) fell in the range of 0 to 29%.
`Nc1c(Cl)c(C(=O)O)nc(-c2ccc(OC(F)(F)F)cc2)c1Cl` [Compound 105]: the melting point is 141.9 to 143.1 °C. The pest or weed control at 140 g/ha in data set [1] (setting [9]) was 0 to 29%. For the same compound, the pest or weed control at 140 g/ha in data set [1] (setting [10]) fell in the range of 0 to 29%. For the same compound, the pest or weed control at 140 g/ha in data set [1] (setting [11]) was in the range of 0 to 29%. Moreover, the pest or weed control at 140 g/ha in data set [1] (setting [12]) lay within 0 to 29%. Besides, the pest or weed control at 140 g/ha in data set [1] (setting [13]) lay in the range of 0 to 29%. Besides, in data set [1] (setting [14]), the pest or weed control at 140 g/ha lay within 95 to 100%. The pest or weed control at 140 g/ha in data set [1] (setting [15]) is 0 to 29%. Further, the pest or weed control at 140 g/ha in data set [2] (setting [3]) was 0 to 29%. Further, the pest or weed control at 140 g/ha in data set [2] (setting [4]) lay in the range of 0 to 29%. Further, the pest or weed control at 140 g/ha in data set [2] (setting [5]) lay in the range of 0 to 29%. Besides, the pest or weed control at 140 g/ha in data set [2] (setting [16]) lay in the range of 0 to 29%. Also, in data set [2] (setting [6]), the pest or weed control at 140 g/ha was in the range of 0 to 29%. In data set [2] (setting [17]), the pest or weed control at 140 g/ha was 0 to 29%. For the same compound, the pest or weed control at 140 g/ha in data set [2] (setting [7]) is 0 to 29%. Besides, the pest or weed control at 140 g/ha in data set [2] (setting [8]) fell in the range of 0 to 29%.
